Laboratory results taken from patent US7074575B2, “Use of interleukin-19 to treat ovarian cancer” (ZymoGenetics, Inc., priority 2002, dated 2006).

System: Ovcar3 (ATCC #HTB-161) cells
Assay: Ovcar3 cytotoxicity assay (MTT readout)
Type: cell-based
Settings: 72 hours
Method: We tested IL-19 in an Ovcar3 (ATCC #HTB-161) cytoxicity assay to measure the ability of IL-19 to prevent cells from growing during normal growth conditions. We used MTT reagent (Promega, Madison, USA) as our detection and readout for this cell inhibition assay. Procedure of a cytoxicity assay: Ovcar3 Cytotoxicity Assay
Ovcar3 (ATCC #HTB-161) cells were plated at a density of 5000 cells/100 ul/well in clear 96 well TC plates. Cells were plated in complete growth media consisting of RPMI containing 20% FBS, 0.01 mg/ml insulin, 2% HEPES, 1% Sodium Pyruvate and 1% Glutamax. Cells were incubated overnight at 37° C. in a 5% CO2 incubator.
The following day, media was removed from the cells and replaced with 100 ul/well of appropriately diluted samples. All sample dilutions were done in complete growth media. Samples were incubated on the cells for 72 hours.
After incubation, an MTT assay was done on the cells using the manufacturer's protocol (Promega #PAG4100). Dye solution was incubated on the cells 4 hours, followed by a 1 hour incubation with the stop solution. Absorbance was then read on the Victor II and percent inhibition was calculated from the wells containing complete growth media only.

## CC1=C(/C=C/C(C)=C/C=C/C(C)=C/C(=O)O)C(C)(C)CCC1 [Retnoic Acid]
3 uM
  inhibition of growth: 29%
10 uM
  inhibition of growth: 34%
31 uM
  inhibition of growth: 43%
100 uM
  inhibition of growth: 83%

B1: IL-19: interleukin-19 polypeptide, amino acid sequence SEQ ID NO:2; mature secreted form amino acid 23 (His) to 177 (Ala) (protein, listed as Homo sapiens)
chain: MKLQCVSLWLLGTILILCSVDNHGLRRCLISTDMHHIEESFQEIKRAIQAKDTFPNVTILSTLETLQIIKPLDVCCVTKNLLAFYVDRVFKDHQEPNPKILRKISSIANSFLYMQKTLRQCQEQRQCHCRQEATNATRVIHDNYDQLEVHAAAIKSLGELDVFLAWINKNHEVMSSA
1 ng/ml
  inhibition of growth: 4%
10 ng/ml
  inhibition of growth: 9%
100 ng/ml
  inhibition of growth: 23%
1000 ng/ml
  inhibition of growth: 52%
